Measurements as given in patent US9029076B2, “Tissue preservation and fixation method” (George Mason Research Foundation, Inc., priority 2006, dated 2015).
“Also recorded” adds a separate entry of the source.

Experiments:
phosphoproteins = experiment: Overall phosphoprotein preservation of FNA / tumor needle samples stored 24 h at 4° C.; settings: compared to directly lysed cell baseline
Experimental: Fine Needle Aspirate (FNA) samples were stored for 24 hours at 4° C. in each of the chemicals/chemical solutions. The cellular samples were further processed for reverse phase protein microarray analysis. […] Each set of 4 horizontal spots by 2 vertical spots represent an original and its replicate sample, printed on the array in two-fold dilutions, for each FNA sample. The dilution series represents undiluted, 1:2, 1:4 and 1:8 dilutions of each sample.
A variety of types of tumor tissues were incubated in a series of conventional preservatives to determine if the preservatives were able to stabilize selected phosphoproteins.

ERK T202/Y204 = experiment: RPA phosphoprotein level after 24 h storage of tumor needle samples in preservatives; settings: 24 h in preservative at 4° C., relative normalized RPA intensity
Experimental: (§1) The RPA format, originated by the present inventors and collaborators (see, e.g., Paweletz et al. (2001) Oncogene 20, 1981-1989), immobilizes an individual test sample in a miniature dilution curve such that an array contains hundreds of different patient samples, treatments, or time points. In the RPA format, each array is incubated with one detection protein (e.g. anti-peptide antibody), and a single analyte endpoint is measured and directly compared across multiple samples. Briefly, the lysates are printed on glass backed nitrocellulose array slides (FAST Slides Whatman, Florham Park, N.J. or ONCYTE slides Grace BioLabs, Bend, Oreg.) using a robotic array printing device (GMS 417 arrayer (Affymetrix, Santa Clara, Calif. or Aushon 2470, Aushon Biosystems, Burlington, Mass. equipped with 125-500 μm pins). Each lysate is printed in a dilution curve representing neat, 1:2, 1:4, 1:8, 1:16 and negative control dilutions. The slides are stored with desiccant (Drierite, W. A. Hammond, Xenia, Ohio) at −20° C. prior to immunostaining.
(§2) Immunostaining is performed on an automated slide stainer per manufacturer's instructions (Autostainer CSA kit, Dako, Carpinteria, Calif.). Each slide is incubated with a single primary antibody at room temperature for 30 minutes. Polyclonal primary antibodies can be, e.g.: GSK3α/β Tyr279/216 (Invitrogen-Biosource, Carlsbad, Calif.), BCL-2, HIF-1α (BD, Franklin Lakes, N.J.), 4EBP1, FKHR ser256, eIF4E, eIF4E ser209, eIF4G, eIF4G ser1108, IGFR-β, IRS-1, IRS-2, IRS-1 ser612, SGK, Bak, Bax, BAD, BAD ser112, BAD ser136, BAD ser155, B-Raf, mTOR, mTOR ser2448, p70S6 Thr389, p70S6 kinase, p70S6 ser371, S6 kinase ser240/244, Akt, Akt ser473, Akt Thr308, 4EBP1 ser65, 4EBP1 ser70, and 4EBP1 Thr37/46 (Cell Signaling Technology, Danvers, Mass.). A negative control slide is incubated with antibody diluent. Secondary antibody can be goat anti-rabbit IgG H+L (1:5000) (Vector Labs, Burlingame, Calif.).
(§3) Each array is scanned, spot intensity analyzed, data normalized, and a standardized, single data value can be generated for each sample on the array (Image Quant v5.2, GE Healthcare, Piscataway, N.J.) or MicroVigene v2.8, Vigene Tech, Billerica, Mass.). Spot intensity is integrated over a fixed area. Local area background intensity is calculated for each spot with the unprinted adjacent slide background. […] The Ward method for two-way hierarchical clustering can be performed using JMP v5.0 (SAS Institute, Cary N.C.). Wilcoxon two-sample rank sum test can be used to compare values between two groups. P values less than 0.05 are considered significant. When one cannot assume a normal distribution of the variables, non-parametric methods are used. Kaplan-Meier (log-rank) survival estimates for univariate survival analysis can be used.
(§4) Briefly, tumor tissues from gastrinoma/liver, mesothelioma and parathyroid tumors were sampled by five needle passes and placed into the preservatives listed in Table 5. […] Immediate lysis and denaturation of the cellular proteins were accomplished by standard Pierce Tissue Protein Extraction Buffer (T-PER), with additional SDS, denaturing reagents, and detergents. The cell samples were stored 24 h in the listed preservatives at 4° C. and then the listed phosphoprotein endpoints were measured. […] Some values dropped to zero while others are markedly elevated compared to the freshly lysed cell baseline. […] They were unable to stabilize the phosphorylation state of key signal proteins over a storage period of 24 hours, which is a typical time delay for cell or tissue shipment. Numbers in the table are relative normalized intensity values using the RPA technology described herein.

CREB ser133 = experiment: as above; settings: 24 h in preservative at 4° C., relative normalized RPA intensity
Experimental: as §1, §2, §3, §4

EGFR Y1148 = experiment: as above; settings: 24 h in preservative at 4° C., relative normalized RPA intensity
Experimental: as §1, §2, §3, §4

AKT ser473 = experiment: as above; settings: 24 h in preservative at 4° C., relative normalized RPA intensity
Experimental: as §1, §2, §3, §4

p38 T180/182 = experiment: as above; settings: 24 h in preservative at 4° C., relative normalized RPA intensity
Experimental: as §1, §2, §3, §4

IRS-1 ser612 = experiment: as above; settings: 24 h in preservative at 4° C., relative normalized RPA intensity
Experimental: as §1, §2, §3, §4

IKappa-Ba ser32 = experiment: as above; settings: 24 h in preservative at 4° C., relative normalized RPA intensity
Experimental: as §1, §2, §3, §4

AKT Thr308 = experiment: as above; settings: 24 h in preservative at 4° C., relative normalized RPA intensity
Experimental: as §1, §2, §3, §4

CC3 Asp175 = experiment: as above; settings: 24 h in preservative at 4° C., relative normalized RPA intensity
Experimental: as §1, §2, §3, §4

GSK3ab ser21/9 = experiment: as above; settings: 24 h in preservative at 4° C., relative normalized RPA intensity
Experimental: as §1, §2, §3, §4

mTOR (S2448) = experiment: RPA of fixed versus snap frozen samples; settings: cellular equivalents printed on reverse phase protein microarrays, FIG. 7
Source text: We compared phosphoproteins from real time, room temperature shipping conditions in a methanol:water or ethanol:water fixative to samples that were snap frozen.

[1] = test system: cultured cell line (A549); experiment: Phosphorylation over time with phosphatase inhibitor in cell culture model; assay type: cell-based
Experimental: (§5) The phosphorylation rises rapidly to a high level in less than 40 minutes, which is followed by cell death.
(§6) These continuing metabolic processes present problems for the preservation of phosphoproteins in a sample. For example, the inventors have discovered that the addition of a phosphatase inhibitor alone, designed to block the removal of protein phosphate groups by endogenous phosphatases, can cause unchecked and highly abnormal upward accumulation of abnormal levels of phosphoproteins, reaching a lethal level.

EGFR Y1173 = experiment: as above; assay type: cell-based; settings: living cells exposed to phosphatase inhibitor, FIG. 10A
Experimental: as §5, §6

[2] = Gastrinoma/liver tumor, Lysis Buffer = frozen immediately after lysis
[3] = Parathyroid tumor, Lysis Buffer = frozen immediately after lysis

CCO [70% ethanol, ethanol]
preservation of phosphoproteins overall (phosphoproteins): significant, reproducible degradation of the phospho endpoints | ERK T202/Y204 Normalized data (ERK T202/Y204; [2]): 11.51 | ERK T202/Y204 Normalized data (ERK T202/Y204; Mesothelioma): 30.74 | ERK T202/Y204 Normalized data (ERK T202/Y204; [3]): 37.27 | CREBser133 Normalized data (CREB ser133; [2]): 103.07 | CREBser133 Normalized data (CREB ser133; Mesothelioma): 53.05 | CREBser133 Normalized data (CREB ser133; [3]): 67.91 | EGFR Y1148 Normalized data (EGFR Y1148; [2]): 39.95 | EGFR Y1148 Normalized data (EGFR Y1148; Mesothelioma): 30.71 | EGFR Y1148 Normalized data (EGFR Y1148; [3]): 47.58 | AKT ser473 Normalized data (AKT ser473; [2]): 0.00 | AKT ser473 Normalized data (AKT ser473; Mesothelioma): 10.94 | AKT ser473 Normalized data (AKT ser473; [3]): 7.18 | p38 T180/182 Normalized data (p38 T180/182; [2]): 27.50 | p38 T180/182 Normalized data (p38 T180/182; Mesothelioma): 49.07 | p38 T180/182 Normalized data (p38 T180/182; [3]): 45.63 | IRS-1 ser612 Normalized data (IRS-1 ser612; [2]): 19.74 | IRS-1 ser612 Normalized data (IRS-1 ser612; Mesothelioma): 12.16 | IRS-1 ser612 Normalized data (IRS-1 ser612; [3]): 15.92 | IKappa-Ba ser32 Normalized data (IKappa-Ba ser32; [2]): 28.36 | IKappa-Ba ser32 Normalized data (IKappa-Ba ser32; Mesothelioma): 25.09 | IKappa-Ba ser32 Normalized data (IKappa-Ba ser32; [3]): 32.97 | AKT Thr308 Normalized data (AKT Thr308; [2]): 0.00 | AKT Thr308 Normalized data (AKT Thr308; Mesothelioma): 15.15 | AKT Thr308 Normalized data (AKT Thr308; [3]): 18.57 | CC3 Asp175 Normalized data (CC3 Asp175; [2]): 5.09 | CC3 Asp175 Normalized data (CC3 Asp175; Mesothelioma): 15.92 | CC3 Asp175 Normalized data (CC3 Asp175; [3]): 19.16 | GSK3ab ser21/9 Normalized data (GSK3ab ser21/9; [2]): 19.01 | GSK3ab ser21/9 Normalized data (GSK3ab ser21/9; Mesothelioma): 31.87 | GSK3ab ser21/9 Normalized data (GSK3ab ser21/9; [3]): 60.83

CO [20-50% methanol in water, methanol]
level of mTOR (S2448) phosphorylation, fixed versus snap frozen (mTOR (S2448)): equivalence

pervanadate
phosphorylation of phospho-endpoints over time ([1]; A549 cells, FIG. 10): hyperphosphorylation over time; also recorded: large surge of phosphorylation | fate of cells after phosphorylation surge ([1]; living cells exposed to phosphatase inhibitor, FIG. 10A): cell death | time for EGFR Y1173 phosphorylation to rise to a high level (EGFR Y1173): less than 40 minutes
